Tests used:
[1] = system: IL-1β release from THP-1 cells; assay: IL-1β Release Assay (PMA-differentiated THP-1 cells, LPS + nigericin); type: cell-based; details: Homo sapiens, 250 ng/mL LPS, 20 μM nigericin
Procedure: Approximately 1.5 million THP-1 cells were plated in each well of a 6-well TC plate and incubated with 40 nM PMA in RPMI (10% FBS, 1% Penstrep) for 24 hours. The media was then removed and cells were rested in RPMI (10% FBS, 1% Penstrep) for 24 hours after which time the media was removed and cells were pre-treated for 2 hours with various concentrations of compounds of interest (typically serial 3-fold dilution in RPMI+5% FBS, concentrations ranging from 1 μM to 0.5 nM) in RPMI (5% FBS). The media was again removed and cells were incubated with 250 ng/mL LPS and compounds of interest (concentrations as above) in RMPI (5% FBS) for 2 hours. The media was removed for a last time and cells were incubated with 20 μM nigericin and compounds of interest (concentrations as above) in Opti-MEM for 30 minutes. Cell media was then collected and the amount of cleaved IL-1β was determined using a JESS instrument (Protein Simple) and standard protocols. Cleaved Il-1β antibody was obtained from Cell Signaling (catalogue #83186S) and was used at 1:20 dilution in antibody diluent 2. Protein Simple 1× anti-Rabbit HRP secondary antibody was used along with Protein Simple luminol and peroxide for chemiluminescent detection. Primary antibody incubation time was increased from 30 minutes to 60 minutes.

[2] = target: full-length recombinant human NEK7 (Homo sapiens (Human), UniProt Q8TDX7); assay: NEK7 Enzymatic Assay ([33P]-ATP, casein substrate); type: biochemical
Sequence of full-length recombinant human NEK7 (Q8TDX7 whole entry): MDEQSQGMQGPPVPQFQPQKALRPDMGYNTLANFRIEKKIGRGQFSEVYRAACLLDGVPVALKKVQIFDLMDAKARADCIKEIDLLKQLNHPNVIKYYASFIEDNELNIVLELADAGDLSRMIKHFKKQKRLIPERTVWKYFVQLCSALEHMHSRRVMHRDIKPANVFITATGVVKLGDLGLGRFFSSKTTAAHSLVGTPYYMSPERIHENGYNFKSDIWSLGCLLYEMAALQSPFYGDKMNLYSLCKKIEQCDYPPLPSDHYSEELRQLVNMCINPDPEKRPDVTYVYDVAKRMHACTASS
Procedure: Casein substrate (from bovine milk, hydrolyzed and partially dephosphorylated mixture of α, β and a caseins, obtained from Sigma Aldrich, catalogue #C4765, diluted in distilled water to a final concentration of 1 mg/mL) and full-length recombinant human NEK7 (expressed by baculovirus in Sf9 insect cells using a N-terminal GST tag, obtained from SignalChem, catalogue #N09-10G, 0.1 μg/μL) were mixed in assay buffer (20 mM Hepes pH 7.5, 10 mM MgCl2, 1 mM EGTA, 0.02% Brij35, 0.02 mg/ml BSA, 0.1 mM Na3VO4, 2 mM DTT, 1% DMSO). Compounds of interest (serial 3-fold dilution in DMSO from 10 μM to 0.5 nM) or vehicle (1% DMSO) were dispensed into the kinase reaction mixture by Acoustic technology (Echo550; nanoliter range). After incubation at room temperature for 20 minutes, the kinase reaction was initiated by addition of [^33P]-ATP (specific activity […]) and the mixture was incubated at room temperature for 2 hours. The reaction was then stopped by spotting the reaction mixture on strips of phosphocellulose P81 paper. Following washing, the radioactivity of the P81 paper was measured and kinase activity data were expressed as the percent remaining kinase activity in test samples compared to vehicle reactions. IC50 values and curve fits were obtained using Prism (GraphPad Software).

| IC50 [1] | IC50 [2] | SMILES |
| --- | --- | --- |
| 0.301 to 0.5 µM | 0.501 to 1.5 µM | Cc1cc(-c2cn(C3CC3)c3ncnc(N)c23)ccc1NC(=O)Nc1cc(C2(C(F)(F)F)CC2)no1 [Example 38, 1-(4-(4-amino-7-cyclopropyl-7H-pyrrolo[2,3-d]pyrimidin-5-yl)-2-methylphenyl)-3-(3-(1-(trifluoromethyl)cyclopropyl)isoxazol-5-yl)urea] |
| < 0.15 µM | 0.151 to 0.3 µM | CC(C)(O)Cn1cc(-c2ccc(NC(=O)Nc3cc(C4(C(F)(F)F)CC4)no3)c(F)c2)c2c(N)ncnc21 [Example 14, 1-(4-(4-amino-7-(2-hydroxy-2-methylpropyl)-7H-pyrrolo[2,3-d]pyrimidin-5-yl)-2-fluorophenyl)-3-(3-(1-(trifluoromethyl)cyclopropyl)isoxazol-5-yl)urea] |
| < 0.15 µM | < 0.15 µM | CC(C)(C)c1cc(NC(=O)Nc2ccc(-c3cn(C4CC4)c4ncnc(N)c34)cc2F)on1 [Example 2, 1-(4-(4-amino-7-cyclopropyl-7H-pyrrolo[2,3-d]pyrimidin-5-yl)-2-fluorophenyl)-3-(3-(tert-butyl)isoxazol-5-yl)urea] |
|  | 0.151 to 0.3 µM | Nc1ncnc2c1c(-c1ccc(NC(=O)Nc3cc(C(F)(F)F)no3)c(F)c1)cn2C1CC1 [Example 28, 1-(4-(4-amino-7-cyclopropyl-7H-pyrrolo[2,3-d]pyrimidin-5-yl)-2-fluorophenyl)-3-(3-(trifluoromethyl)isoxazol-5-yl)urea] |
| < 0.15 µM | < 0.15 µM | Nc1ncnc2c1c(-c1ccc(NC(=O)Nc3cc(C4(C(F)(F)F)CC4)no3)c(F)c1)cn2C1CC1 [Example 5, 1-(4-(4-amino-7-cyclopropyl-7H-pyrrolo[2,3-d]pyrimidin-5-yl)-2-fluorophenyl)-3-(3-(1-(trifluoromethyl)cyclopropyl)isoxazol-5-yl)urea] |
|  | 0.301 to 0.5 µM | CC(C)(C)c1nnc(NC(=O)Nc2ccc(-c3cn(C4CC4)c4ncnc(N)c34)cc2F)s1 [Example 19, 1-(4-(4-amino-7-cyclopropyl-7H-pyrrolo[2,3-d]pyrimidin-5-yl)-2-fluorophenyl)-3-(5-(tert-butyl)-1,3,4-thiadiazol-2-yl)urea] |

Further lines, the compound ahead of its results:

| SMILES | IC50 [1] | IC50 [2] |
| --- | --- | --- |
| Nc1ncnc2c1c(-c1ccc(NC(=O)Nc3cc(C4(C(F)(F)F)CC4)on3)c(F)c1)cn2C1CC1 [Example 10, 1-(4-(4-amino-7-cyclopropyl-7H-pyrrolo[2,3-d]pyrimidin-5-yl)-2-fluorophenyl)-3-(5-(1-(trifluoromethyl)cyclopropyl)isoxazol-3-yl)urea] | < 0.15 µM | 0.151 to 0.3 µM |
| Nc1ncnc2c1c(-c1ccc(NC(=O)Nc3cc(C4(C(F)(F)F)CC4)no3)nc1)cn2C1CC1 [Example 37, 1-(5-(4-amino-7-cyclopropyl-7H-pyrrolo[2,3-d]pyrimidin-5-yl)pyridin-2-yl)-3-(3-(1-(trifluoromethyl)cyclopropyl)isoxazol-5-yl)urea] | < 0.15 µM | < 0.15 µM |
| CC(C)(C)c1cc(NC(=O)Nc2ccc(-c3cn(C4CC4)c4ncnc(N)c34)cn2)on1 [Example 3, 1-(5-(4-amino-7-cyclopropyl-7H-pyrrolo[2,3-d]pyrimidin-5-yl)pyridin-2-yl)-3-(3-(tert-butyl)isoxazol-5-yl)urea] | 0.151 to 0.3 µM | < 0.15 µM |
| CC1(c2cc(NC(=O)Nc3ccc(-c4cn(C5CC5)c5ncnc(N)c45)cc3F)on2)CC1 [Example 17, 1-(4-(4-amino-7-cyclopropyl-7H-pyrrolo[2,3-d]pyrimidin-5-yl)-2-fluorophenyl)-3-(3-(1-methylcyclopropyl)isoxazol-5-yl)urea] | < 0.15 µM | < 0.15 µM |
| CC(C)(C#N)c1cc(NC(=O)Nc2ccc(-c3cn(C4CC4)c4ncnc(N)c34)cc2F)on1 [Example 35, 1-(4-(4-amino-7-cyclopropyl-7H-pyrrolo[2,3-d]pyrimidin-5-yl)-2-fluorophenyl)-3-(3-(2-cyanopropan-2-yl)isoxazol-5-yl)urea] | 0.151 to 0.3 µM | 0.151 to 0.3 µM |
| CC1(c2cc(NC(=O)Nc3ccc(-c4cn(C5CC5)c5ncnc(N)c45)cc3F)on2)CCC1 [Example 34, 1-(4-(4-amino-7-cyclopropyl-7H-pyrrolo[2,3-d]pyrimidin-5-yl)-2-fluorophenyl)-3-(3-(1-methylcyclobutyl)isoxazol-5-yl)urea] | < 0.15 µM | < 0.15 µM |
| CC(C)(C)c1cc(NC(=O)NC2CC=C(c3cn(C4CC4)c4ncnc(N)c34)CC2)on1 (centres unmarked) [Example 15, 1-(4-(4-amino-7-cyclopropyl-7H-pyrrolo[2,3-d]pyrimidin-5-yl)cyclohex-3-en-1-yl)-3-(3-(tert-butyl)isoxazol-5-yl)urea] | > 1 µM | > 1.5 µM |
| Nc1ncnc2c1c(-c1ccc(NC(=O)Nc3cc(C4(C(F)(F)F)CC4)no3)c(F)c1)cn2C1CC(O)C1 (centres unmarked) [Example 39, 1-(4-(4-amino-7-(3-hydroxycyclobutyl)-7H-pyrrolo[2,3-d]pyrimidin-5-yl)-2-fluorophenyl)-3-(3-(1-(trifluoromethyl)cyclopropyl)isoxazol-5-yl)urea] | < 0.15 µM | < 0.15 µM |
| Nc1ncnc2c1c(-c1ccc(NC(=O)Nc3cc(C4(C(F)(F)F)CC4)no3)cc1F)cn2C1CC1 [Example 11, 1-(4-(4-amino-7-cyclopropyl-7H-pyrrolo[2,3-d]pyrimidin-5-yl)-3-fluorophenyl)-3-(3-(1-(trifluoromethyl)cyclopropyl)isoxazol-5-yl)urea] |  | 0.301 to 0.5 µM |
| CC(C)(F)c1cc(NC(=O)Nc2ccc(-c3cn(C4CC4)c4ncnc(N)c34)cc2F)on1 [Example 9, 1-(4-(4-amino-7-cyclopropyl-7H-pyrrolo[2,3-d]pyrimidin-5-yl)-2-fluorophenyl)-3-(3-(2-fluoropropan-2-yl)isoxazol-5-yl)urea] | 0.151 to 0.3 µM | < 0.15 µM |
